Measured values: US20080153796A1, “Promotion of wound contraction” (RENOVO LIMITED, priority 2006, published 2008)

Assays:
[1] = system: full thickness cutaneous excisional wounds (punch biopsies); experiment: Wound width three days after punch biopsies in human volunteers (histological assessment); assay type: in vivo; conditions: day 3; for average wound width: single intradermal injection 10-30 min before 3 mm punch biopsy
Source text: A single site, double-blind study was undertaken to illustrate the efficacy of medicaments of the invention in promoting contraction of punch biopsy wounds in healthy male and post-menopausal female subjects. The control treatments used in this study were Placebo (vehicle) and Standard Care (moist wound healing dressings).
44 healthy subjects were recruited to the study, of whom, 40 were healthy males (aged 18-75years) and 4 were post-menopausal females (aged 53-69 years). The average age of subjects recruited to this study was 42 years. The post-menopausal status of female subjects was confirmed by quantification of serum levels of estradiol and follicle stimulating hormone (FSH). Serum levels of estradiol were required to be <90 pmol/L, and follicle stimulating hormone levels >31 IU/L.
Before wounding, each subject received either a medicament of the invention (providing a 100 μl intradermal injection of a solution comprising 400 ng of 17β-oestradiol in a diluent comprising PBS and 5% v/v ethanol), or a control medicament (two used, providing a 100 μl intradermal injection of a solution comprising either 20 ng or 100 ng respectively of 17β-oestradiol in a diluent comprising PBS and 5% v/v ethanol). The experimental medicaments (either of the invention or control) were administered intradermally as a single dose at a volume of 100 μl per wound site, 10-30 minutes before wounding to sites on the upper, inner aspect of the arm. This administration was sufficient to prophylactically “prime” an area of 1 cm^2 of unwounded skin prior to wounding. Wounds were made with a 3 mm punch biopsy.
Biopsy sites were excised, using a 5 mm punch biopsy, three days after wounding. Excised wounds were preserved for histological assessment of wound width. All histological assessments were made using preserved 5 micron-thickness wound sections taken from the widest part of each excised biopsy site. Sections were stained with Haematoxylin and Eosin to aid visualisation of structural features, and measurements made using image analysis software. The wound diameter is the linear total wound diameter of the wound section measured in micrometres. The average wound diameter value was calculated from the 44 wounds of each treatment group.

[2] = 100 μg of oestradiol applied in a gel; six hours from application; cited from earlier work
[3] = matrix of U.S. Pat. No. 5,252,334, without drug delivery rate enhancers; cited from earlier work

Work on `C[C@]12CC[C@@H]3c4ccc(O)cc4CC[C@H]3[C@@H]1CC[C@@H]2O` [17β-oestradiol] yielded an average wound width ([1]; 20 ng 17β-oestradiol in 100 μl PBS/5% v/v ethanol, control medicament) of 2626 μm, an average wound width ([1]; 100 ng 17β-oestradiol in 100 μl PBS/5% v/v ethanol, control medicament) of 2612 μm and an average wound width ([1]; 400 ng 17β-oestradiol in 100 μl PBS/5% v/v ethanol, medicament of the invention) of 2480 μm. For the same compound, the “wound width compared to control treated or untreated wounds” value ([1]; 400 ng 17β-oestradiol, intradermal) was “significantly decreased”, the “amount of applied oestradiol found in the skin or having passed through the skin” value [2] was 15.7 µg and the “rate of administration per hour per square centimetre of skin” value [3] was “approximately 0.2 μg”.
